# According to patent US6737383B1, “Herbicidal oxadiazolidines” (priority 1999, dated 2004):
# Tests used:
# [1] = tested on: bedstraw; assay: Test B pre/postemergence bedstraw; assay type: in vivo, Galium aparine; conditions: for Bedstraw plant response rating: Rate 62 g/ha
# In short: (§1)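 Herbicidal effect was estimated by eye on a ten-point control scale after plants spent twelve to sixteen days in a greenhouse following soil or foliar treatment. Foliar sprays targeted plants at one to four leaves; all doses were formulated in a non-phytotoxic solvent with surfactant.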
# [2] = tested on: blackgrass; assay: Test B pre/postemergence blackgrass; assay type: in vivo, Alopecurus myosuroides
# In short: as §1
# [3] = tested on: surinam grass; assay: Test B pre/postemergence surinam grass; assay type: in vivo, Brachiaria decumbens
# In short: as §1
# [4] = tested on: cocklebur; assay: Test B pre/postemergence cocklebur; assay type: in vivo, Xanthium strumarium
# In short: as §1
# [5] = tested on: corn; assay: Test B pre/postemergence corn; assay type: in vivo, Zea mays
# In short: as §1
# [6] = tested on: crabgrass; assay: Test B pre/postemergence crabgrass; assay type: in vivo, Digitaria sanguinalis
# In short: as §1
# [7] = tested on: giant foxtail; assay: Test B pre/postemergence giant foxtail; assay type: in vivo, Setaria faberii
# In short: as §1
# [8] = tested on: morningglory; assay: Test B pre/postemergence morningglory; assay type: in vivo, Ipomoea hederacea
# In short: as §1
# [9] = tested on: pigweed; assay: Test B pre/postemergence pigweed; assay type: in vivo, Amaranthus retroflexus
# In short: as §1
# [10] = Postemergence, Rate 125 g/ha, scale 0 to 10, 0 is no effect, 10 is complete control
# [11] = Preemergence, Rate 62 g/ha, scale of 0 to 10 where 0 is no effect and 10 is complete control
# [12] = Preemergence, Rate 250 g/ha, scale of 0 to 10 where 0 is no effect and 10 is complete control
# [13] = Preemergence, Rate 500 g/ha, scale of 0 to 10 where 0 is no effect and 10 is complete control
# [14] = Rate 62 g/ha, Postemergence, scale 0 to 10 (0 no effect, 10 complete control)
# [15] = Rate 250 g/ha, Postemergence, scale of 0 to 10 where 0 is no effect and 10 is complete control
# [16] = Rate 500 g/ha, Postemergence, scale 0 to 10, 0 no effect, 10 complete control
compound,measurement,setting,value
CC(C)N(C(=O)n1oc(=O)n(-c2ccc3ccccc3c2)c1=O)c1ccc(F)cc1 [Compound 329],"Plant response rating, Bedstraw",[1]; [10],0
same,Bedstraw plant response rating,"[1]; Preemergence, scale of 0 to 10 where 0 is no effect and 10 is complete control",0
same,Bedstraw plant response rating (0 to 10 scale),"[1]; Preemergence, Rate 125 g/ha",0
same,Bedstraw plant response rating,"[1]; Postemergence, scale 0 to 10 (0 no effect, 10 complete control)",0
same,"Plant response rating, Blackgrass",[2]; [10],0
same,Blackgrass plant response rating,[2]; [11],0
same,Blackgrass plant response rating (0 to 10 scale),"[2]; Preemergence, Rate 125 g/ha",0
same,Blackgrass plant response rating,[2]; [12],0
same,Blackgrass plant response rating,[2]; [13],0
same,Blackgrass plant response rating,[2]; [14],0
same,"Plant response rating, Blackgrass",[2]; [15],0
same,"Plant response rating, Blackgrass",[2]; [16],0
same,"Plant response rating, B. signalgrass",[3]; [10],0
same,B. signalgrass plant response rating,[3]; [11],0
same,"B. signalgrass plant response rating (0 to 10 scale, 0 is no effect, 10 is complete control)","[3]; Preemergence, Rate 125 g/ha",0
same,B. signalgrass plant response rating,[3]; [12],0
same,B. signalgrass plant response rating,[3]; [13],0
same,B. signalgrass plant response rating,[3]; [14],0
same,"Plant response rating, B. signalgrass",[3]; [15],0
same,"Plant response rating, B. signalgrass",[3]; [16],0
same,"Plant response rating, Cocklebur",[4]; [10],0
same,Cocklebur plant response rating,[4]; [11],0
same,Cocklebur plant response rating (0 to 10 scale),"[4]; Preemergence, Rate 125 g/ha",0
same,Cocklebur plant response rating,[4]; [12],0
same,Cocklebur plant response rating,[4]; [13],0
same,Cocklebur plant response rating,[4]; [14],0
same,"Plant response rating, Cocklebur",[4]; [16],4
same,"Plant response rating, Corn",[5]; [10],0
same,Corn plant response rating,[5]; [11],0
same,Corn plant response rating (0 to 10 scale),"[5]; Preemergence, Rate 125 g/ha",0
same,Corn plant response rating,[5]; [12],0
same,Corn plant response rating,[5]; [13],0
same,Corn plant response rating,[5]; [14],0
same,"Plant response rating, Corn",[5]; [16],0
same,"Plant response rating, Crabgrass",[6]; [10],0
same,Crabgrass plant response rating,[6]; [11],0
same,Crabgrass plant response rating (0 to 10 scale),"[6]; Preemergence, Rate 125 g/ha",0
same,Crabgrass plant response rating,[6]; [12],0
same,Crabgrass plant response rating,[6]; [13],3
same,Crabgrass plant response rating,[6]; [14],0
same,"Plant response rating, Crabgrass",[6]; [16],0
same,"Plant response rating, Giant foxtail",[7]; [10],0
same,Giant foxtail plant response rating,[7]; [11],0
same,Giant foxtail plant response rating (0 to 10 scale),"[7]; Preemergence, Rate 125 g/ha",0
same,Giant foxtail plant response rating,[7]; [12],0
same,Giant foxtail plant response rating,[7]; [13],3
same,Giant foxtail plant response rating,[7]; [14],0
same,"Plant response rating, Giant foxtail",[7]; [16],0
same,"Plant response rating, Morningglory",[8]; [10],0
same,Morningglory plant response rating,[8]; [11],0
same,Morningglory plant response rating (0 to 10 scale),"[8]; Preemergence, Rate 125 g/ha",0
same,Morningglory plant response rating,[8]; [12],0
same,Morningglory plant response rating,[8]; [13],0
same,Morningglory plant response rating,[8]; [14],0
same,"Plant response rating, Morningglory",[8]; [16],0
same,"Plant response rating, Redroot pigweed",[9]; [10],0
same,Redroot pigweed plant response rating,[9]; [11],0
same,Redroot pigweed plant response rating (0 to 10 scale),"[9]; Preemergence, Rate 125 g/ha",0
same,Redroot pigweed plant response rating,[9]; [12],0
same,Redroot pigweed plant response rating,[9]; [13],0
same,Redroot pigweed plant response rating,[9]; [14],0
